This passage reports IC50 results from patent US11485735B2, “Selective CDK4/6 inhibitor and preparation thereof” (Wuxi Shuangliang Biotechnology Co., Ltd., priority 2019, dated 2022).

Counter-ions that a name gives are not always drawn.

The target of one assay is T1, CDK6/CyclinD3 (Homo sapiens, UniProt Q00534).
T1 construct: purchased Wuxi Biortus Biosciences Co. Ltd
Nature of the assay: In-vitro kinase inhibitory activity, CDK6/CyclinD3 (Caliper EZ Reader II mobility shift). The class given is biochemical. The following applies: CDK6/CyclinD3 20 nM, ATP 2 mM, Peptide 1 μM, 27° C., 120 min; read-out: IC50 (half maximal inhibitory concentration, nM) CDK6. The procedure: The final volume for assay was 16 μL, and the reaction temperature was 27° C. […] The compound was dissolved in dimethyl sulfoxide (DMSO) to reach a concentration of 10 mM. […] 2 μL of the test compound solution was mixed with 5 μL of the kinase solution, and the mixture was incubated for 10 min. 5 μL of the mixed solution of the polypeptide substrate and ATP was then added. The mixture was incubated at 27° C. for 120 min, and then the reaction was terminated by adding 4 μL of EDTA with a concentration of 120 mM to each sample. […] Each assay was conducted in at least two replicates.
(§1) The final concentrations of the reagents in the assay were as follows. […] The reaction mixture was analyzed on a Caliper EZ Reader II by electrophoretic separation of the fluorescent substrate and the phosphorylated product. Data were calculated by using GraphPad Prism version 6.0 and IC50 values were obtained by adjusting the non-linear regression models of the dose response curves.

Another assay addresses T2, CDK4/CyclinD3 (Homo sapiens, UniProt P11802).
T2 construct: purchased Wuxi Biortus Biosciences Co. Ltd
Nature of the assay: In-vitro kinase inhibitory activity, CDK4/CyclinD3 (Caliper EZ Reader II mobility shift). Format: biochemical. Conditions: CDK4/CyclinD3 20 nM, ATP 2 mM, Peptide 1 μM, 27° C., 180 min; read-out: IC50 (half maximal inhibitory concentration, nM) CDK4. As to the method: The final volume for assay was 16 μL, and the reaction temperature was 27° C. CDK4/CyclinD3 was produced by Wuxi Biortus Biosciences Co. Ltd. The concentration of the kinase was determined by the results of the optimization experiment. The kinase was diluted with an assay buffer (50 mM Tris HCl pH 8.0, 0.01% Tween 20, 50 μg/mL BSA, and 5 mM MgCl2) to obtain a corresponding kinase solution (2.4× concentration). The compound was dissolved in dimethyl sulfoxide (DMSO) to reach a concentration of 10 mM. […] 2 μL of the test compound solution was mixed with 5 μL of the kinase solution, and the mixture was incubated for 10 min. 5 μL of the mixed solution of the polypeptide substrate and ATP was then added. The mixture was incubated at 27° C. for 180 min, and then the reaction was terminated by adding 4 μL of EDTA with a concentration of 120 mM to each sample. […] Each assay was conducted in at least two replicates.
as §1

The target of another assay is CDK2 (Homo sapiens, UniProt P24941). The assay can be described thus: In-vitro kinase inhibitory activity, CDK2 (selectivity). Format: biochemical. The following applies: read-out: IC50 (half maximal inhibitory concentration, nM) CDK2.
The target in another assay is CDK9 (Homo sapiens, UniProt P50750). Nature of the assay: In-vitro kinase inhibitory activity, CDK9 (selectivity). The class given is biochemical. The following applies: read-out: IC50 (half maximal inhibitory concentration, nM) CDK9.
Assay [1] has as its system human colon cancer COLO205 cells. Nature of the assay: Growth inhibition of tumor cells cultured in vitro, CellTiter-Glo, COLO205. The class given is cell-based. The following applies: COLO205, 72 h, CellTiter-Glo. From the text: (§2) Test drugs: Compounds of the present disclosure. Tumor cell strains: human colon cancer COLO205 cells and human breast cancer MCF-7 cells.
(§3) The growth inhibitory effects on human tumor cells COLO205 and MCF-7 cultured in vitro were observed by using a CellTiter-Glo Luminescent Cell Viability Assay Kit (Promega, Cat. No. G7572). Human tumor cells COLO205 and MCF-7 were both purchased from the American Type Culture Collection.
(§4) CellTiter-Glo Luminescent Cell Viability Assay: The previous cell culture medium was discarded, and the tumor cells were rinsed twice with PBS. An appropriate amount of trypsin (VWR, Cat. No. 0458-25G) was added to digest the tumor cells until most of the cells turned round and were detached from the wall. The trypsin digestion was terminated by adding an RPMI-1640 medium (COLO205; Gibco, Cat. No. A10491-01) containing 10% fetal bovine serum (Hyclone, Cat. No. SV30160.03) and MEM medium (MCF-7; Gibco, Cat. No. 10370-021) containing 10% fetal bovine serum and 0.01 mg/mL insulin, and the cells were gently pipetted with a pipette to completely suspend the tumor cells. After cell counting, a tumor cell suspension was prepared using a complete culture medium and the final concentration was 6.7×10^4 cells/mL. 90 μL of the tumor cell suspension was seeded in each well of a 96-well culture plate (6000 cells/well). The plate was then placed in an incubator with 5% CO2 at 37° C. and incubated for 24 h. A test drug was added by using an Agilent Bravo Automated Liquid Handling Platform, and 10 μL of the sample was added in each well. The assay was conducted in triplicate for each group. A compound of the present disclosure was dissolved in DMSO (BioRoYee, Cat. No. AF0231), and then the resulting solution was diluted to 10 μM/L, 3.33 μM/L, 1.11 μM/L, 0.37 μM/L, 0.123 μM/L, 0.041 μM/L, 0.0137 μM/L, 0.0046 μM/L, and 0.0015 μM/L with the culture medium. The concentration of DMSO was lower than 0.1%, and a culture medium containing 0.1% DMSO was added to the well which was set as a vehicle control group. The 96-well plate was placed in an incubator with 5% CO2 at 37° C. and incubated for 72 h. The 96-well plate to be tested was equilibrated at room temperature for 30 min, and 100 μL of Cell Titer-Glo reagent was added to each well. The contents of each well were mixed in an orbital shaker for 2 min to induce cell lysis, and the plate was incubated at room temperature for 10 min to achieve a constant value of fluorescent intensity. Finally, the chemiluminescence intensity was detected by TECAN M1000. Data were processed with Graphpad Prism 6.0 software. The growth curve of the cells was plotted. The cell growth inhibition rate of a drug was calculated, and the half maximal inhibitory concentration (IC50) of the drug was determined.

Assay [2] relates to human breast cancer MCF-7 cells. The assay can be described thus: Growth inhibition of tumor cells cultured in vitro, CellTiter-Glo, MCF-7. The class given is cell-based. Conditions: MCF-7, 72 h, CellTiter-Glo.
Source text: as §2, §3, §4
For orientation: ATP-based viability assays read luminescence as a measure of living cells.

T1 sequence (Q00534 whole entry, species assumed): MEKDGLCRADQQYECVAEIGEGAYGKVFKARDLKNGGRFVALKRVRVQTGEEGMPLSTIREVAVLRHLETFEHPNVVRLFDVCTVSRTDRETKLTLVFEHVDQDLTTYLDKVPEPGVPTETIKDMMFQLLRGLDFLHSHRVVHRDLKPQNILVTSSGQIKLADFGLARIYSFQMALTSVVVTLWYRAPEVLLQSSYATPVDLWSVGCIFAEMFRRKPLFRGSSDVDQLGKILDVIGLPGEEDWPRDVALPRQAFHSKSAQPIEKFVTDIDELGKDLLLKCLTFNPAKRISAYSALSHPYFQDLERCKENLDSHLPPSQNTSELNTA
T1 sequence (P30281 whole entry partner, species assumed): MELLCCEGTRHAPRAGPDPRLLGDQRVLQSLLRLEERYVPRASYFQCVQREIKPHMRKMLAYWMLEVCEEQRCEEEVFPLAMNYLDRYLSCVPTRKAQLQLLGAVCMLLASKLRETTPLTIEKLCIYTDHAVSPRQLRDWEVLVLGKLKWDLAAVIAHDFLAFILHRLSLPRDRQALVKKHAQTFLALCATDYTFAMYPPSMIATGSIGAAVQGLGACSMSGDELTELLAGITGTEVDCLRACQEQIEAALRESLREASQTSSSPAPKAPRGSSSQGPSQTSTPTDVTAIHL
CDK9, sequence (P50750 whole entry, species assumed): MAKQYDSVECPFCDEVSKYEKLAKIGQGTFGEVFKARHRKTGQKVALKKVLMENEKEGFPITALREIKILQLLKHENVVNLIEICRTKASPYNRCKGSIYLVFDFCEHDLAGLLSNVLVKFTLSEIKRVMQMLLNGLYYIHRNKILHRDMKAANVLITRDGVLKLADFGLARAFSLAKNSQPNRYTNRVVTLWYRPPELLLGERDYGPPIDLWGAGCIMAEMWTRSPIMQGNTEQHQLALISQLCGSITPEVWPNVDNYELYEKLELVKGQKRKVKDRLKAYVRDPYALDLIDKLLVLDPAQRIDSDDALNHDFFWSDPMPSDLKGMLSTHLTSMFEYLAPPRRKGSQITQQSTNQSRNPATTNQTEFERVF
CDK9, sequence (O60563 whole entry partner, species assumed): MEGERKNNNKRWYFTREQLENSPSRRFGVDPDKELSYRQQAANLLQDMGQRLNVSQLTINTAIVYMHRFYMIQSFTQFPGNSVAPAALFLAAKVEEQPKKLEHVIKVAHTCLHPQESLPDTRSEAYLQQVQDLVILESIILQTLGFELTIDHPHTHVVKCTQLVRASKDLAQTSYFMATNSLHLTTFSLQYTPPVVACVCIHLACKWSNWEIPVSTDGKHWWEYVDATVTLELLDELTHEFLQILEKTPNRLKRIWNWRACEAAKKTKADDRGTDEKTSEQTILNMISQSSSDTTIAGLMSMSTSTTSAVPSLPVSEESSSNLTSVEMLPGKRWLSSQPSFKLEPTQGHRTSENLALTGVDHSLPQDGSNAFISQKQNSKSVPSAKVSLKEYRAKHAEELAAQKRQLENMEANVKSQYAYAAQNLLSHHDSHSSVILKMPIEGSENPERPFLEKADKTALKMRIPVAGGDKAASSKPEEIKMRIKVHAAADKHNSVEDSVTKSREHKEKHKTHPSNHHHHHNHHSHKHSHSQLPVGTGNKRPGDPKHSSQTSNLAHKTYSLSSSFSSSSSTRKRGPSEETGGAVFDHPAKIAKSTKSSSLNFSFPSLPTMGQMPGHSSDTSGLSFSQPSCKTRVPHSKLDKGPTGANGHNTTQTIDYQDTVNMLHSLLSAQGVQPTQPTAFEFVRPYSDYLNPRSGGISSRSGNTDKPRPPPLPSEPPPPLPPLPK
T2 sequence (P11802 whole entry, species assumed): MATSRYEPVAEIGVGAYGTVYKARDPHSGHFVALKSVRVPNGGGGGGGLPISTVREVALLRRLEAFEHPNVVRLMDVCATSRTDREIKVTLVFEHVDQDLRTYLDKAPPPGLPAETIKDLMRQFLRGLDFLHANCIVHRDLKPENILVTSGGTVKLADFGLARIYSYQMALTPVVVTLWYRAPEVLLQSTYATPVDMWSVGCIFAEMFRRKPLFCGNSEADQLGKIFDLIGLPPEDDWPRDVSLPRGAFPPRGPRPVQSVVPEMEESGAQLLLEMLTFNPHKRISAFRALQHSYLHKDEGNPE
T2 sequence (P30281 whole entry partner, species assumed): as the sequence (P30281 whole entry partner, species assumed) above

For `CC(=O)c1c(C)c2cnc(Nc3ccc(N4CCN(CCN5CCC(CC6CCN(c7ccc8c(c7)CN(C7CCC(=O)NC7=O)C8=O)CC6)CC5)CC4)cn3)nc2n(C2CCCC2)c1=O` (stereo not drawn) [Compound 10, 3-(5-(4-((1-(2-(4-(6-((6-acetyl-8-cyclopentyl-5-methyl-7-oxo-7,8-dihydropyrido[2,3-d]pyrimidin-2-yl)amino)pyridin-3-yl)piperazin-1-yl)ethyl)piperidin-4-yl)methyl)piperidin-1-yl)-1-oxoisoindolin-2-yl)piperidine-2,6-dione], the IC50 at CDK6/CyclinD3 is 3.21 nM; at CDK4/CyclinD3, 11.5 nM; on CDK2, over 10000 nM; at CDK9, 4150 nM.

In the case of `CC(=O)c1c(C)c2cnc(Nc3ccc(N4CCN(CCN5CCC(OC6CCN(c7ccc8c(c7)CN(C7CCC(=O)NC7=O)C8=O)CC6)CC5)CC4)cn3)nc2n(C2CCCC2)c1=O` (stereo not drawn) [Compound 9, 3-(5-(4-((1-(2-(4-(6-((6-acetyl-8-cyclopentyl-5-methyl-7-oxo-7,8-dihydropyrido[2,3-d]pyrimidin-2-yl)amino)pyridin-3-yl)piperazin-1-yl)ethyl)piperidin-4-yl)oxy)piperidin-1-yl)-1-oxoisoindolin-2-yl)piperidine-2,6-dione dihydrochloride], the IC50 on CDK6/CyclinD3 was 14.2 nM; in assay [1] (Homo sapiens, COLO 205, 72 h), 247 nM; in assay [2] (Homo sapiens, MCF7, 72 h) it was over 10000 nM; on CDK4/CyclinD3, 19.2 nM; on CDK2, over 10000 nM; on CDK9, 3510 nM.

Turning to `Cc1nc2c(F)cc(-c3nc(Nc4ccc(CN5CCN(CCN6CCN(c7ccc8c(c7)CN(C7CCC(=O)NC7=O)C8=O)CC6)CC5)cn4)ncc3F)cc2n1C(C)C` (stereo not drawn) [Compound 12, 3-(5-(4-(2-(4-((6-((5-fluoro-4-(4-fluoro-1-isopropyl-2-methyl-1H-benzo[d]imidazol-6-yl)pyrimidin-2-yl)amino)pyridin-3-yl)methyl)piperazin-1-yl)ethyl)piperazin-1-yl)-1-oxoisoindolin-2-yl) piperidine-2,6-dione trihydrochloride], the IC50 on CDK6/CyclinD3 was found to be 23.2 nM; at CDK4/CyclinD3 it was 13 nM; at CDK2 it was 1030 nM; at CDK9 it was 688 nM.

`CC(=O)c1c(C)c2cnc(Nc3ccc(N4CCN(CCN5CCC(CC6CCN(c7ccc8c(c7)CN(C7CCC(=O)NC7=O)C8=O)CC6)CC5)CC4)cn3)nc2n(C2CCCC2)c1=O` (stereo not drawn) [Compound 11, 3-(5-(4-((1-(2-(4-(6-((6-acetyl-8-cyclopentyl-5-methyl-7-oxo-7,8-dihydropyrido[2,3-d]pyrimidin-2-yl)amino)pyridin-3-yl)piperazin-1-yl)ethyl)piperidin-4-yl)methyl)piperidin-1-yl)-1-oxoisoindolin-2-yl)piperidine-2,6-dione dihydrochloride]: the IC50 is 21.1 nM at CDK6/CyclinD3; 127 nM in assay [1] (Homo sapiens, COLO 205, 72 h); over 10000 nM in assay [2] (Homo sapiens, MCF7, 72 h); 24.6 nM at CDK4/CyclinD3; 8200 nM at CDK2; 4440 nM at CDK9.

`CC(=O)c1c(C)c2cnc(Nc3ccc(N4CCN(CCN5CCC(CN6CCN(c7c(F)cc8c(c7F)CN(C7CCC(=O)NC7=O)C8=O)CC6)CC5)CC4)cn3)nc2n(C2CCCC2)c1=O` (stereo not drawn) [Compound 34, 3-(5-(4-((1-(2-(4-(6-((6-acetyl-8-cyclopentyl-5-methyl-7-oxo-7,8-dihydropyrido[2,3-d]pyrimidin-2-yl)amino)pyridin-3-yl)piperazin-1-yl)ethyl)piperidin-4-yl)methyl)piperazin-1-yl)-4,6-difluoro-1-oxoisoindolin-2-yl)piperidine-2,6-dione trihydrochloride]: the IC50 at CDK6/CyclinD3 came out at 9.84 nM; in assay [1] (Homo sapiens, COLO 205, 72 h), 68.8 nM; in assay [2] (Homo sapiens, MCF7, 72 h) it was 442 nM; at CDK4/CyclinD3, 17.6 nM; at CDK9, 1560 nM.

As to `CC(=O)c1c(C)c2cnc(Nc3ccc(N4CCN(CCN5CCN(c6ccc7c(c6Cl)CN(C6CCC(=O)NC6=O)C7=O)CC5)CC4)cn3)nc2n(C2CCCC2)c1=O` (stereo not drawn) [Compound 20, 3-(5-(4-(2-(4-(6-((6-acetyl-8-cyclopentyl-5-methyl-7-oxo-7,8-dihydropyrido[2,3-d]pyrimidin-2-yl)amino)pyridin-3-yl)piperazin-1-yl)ethyl)piperazin-1-yl)-4-chloro-1-oxoisoindolin-2-yl)piperidine-2,6-dione], the IC50 on CDK6/CyclinD3 is 19.6 nM; in assay [1] (Homo sapiens, COLO 205, 72 h), 78.3 nM; in assay [2] (Homo sapiens, MCF7, 72 h), over 10000 nM; on CDK4/CyclinD3 it was 44.6 nM; on CDK2, over 10000 nM; on CDK9, 3760 nM.

Turning to `COc1c(N2CCN(CCN3CCN(c4ccc(Nc5ncc6c(C)c(C(C)=O)c(=O)n(C7CCCC7)c6n5)nc4)CC3)CC2)ccc2c1CN(C1CCC(=O)NC1=O)C2=O` (stereo not drawn) [Compound 18, 3-(5-(4-(2-(4-(6-((6-acetyl-8-cyclopentyl-5-methyl-7-oxo-7,8-dihydropyrido[2,3-d]pyrimidin-2-yl)amino)pyridin-3-yl)piperazin-1-yl)ethyl)piperazin-1-yl)-4-methoxy-1-oxoisoindolin-2-yl)piperidine-2,6-dione], the IC50 at CDK6/CyclinD3 is 37.8 nM; in assay [1], 133 nM; in assay [2] (Homo sapiens, MCF7, 72 h), over 10000 nM; on CDK4/CyclinD3, 99.5 nM; at CDK9, over 10000 nM.

As to `CC(=O)c1c(C)c2cnc(Nc3ccc(N4CCN(CCN5CCN(c6c(F)cc7c(c6F)CN(C6CCC(=O)NC6=O)C7=O)CC5)CC4)cn3)nc2n(C2CCCC2)c1=O` (stereo not drawn) [Compound 22, 3-(5-(4-(2-(4-(6-((6-acetyl-8-cyclopentyl-5-methyl-7-oxo-7,8-dihydropyrido[2,3-d]pyrimidin-2-yl)amino)pyridin-3-yl)piperazin-1-yl)ethyl)piperazin-1-yl)-4,6-difluoro-1-oxoisoindolin-2-yl) piperidine-2,6-dione], the IC50 at CDK6/CyclinD3 was 18.2 nM; in assay [1] (Homo sapiens, COLO 205, 72 h), 87.1 nM; in assay [2], over 10000 nM; on CDK4/CyclinD3, 27.4 nM; at CDK2, over 10000 nM; at CDK9, 6220 nM.
